In the CheMixHub ionic liquid set:

Experiment: xn = mol fraction of the nth substance listed

O=C1CCCCCO1 + CCCC[n+]1ccn(C)c1.O=S(=O)([N-]S(=O)(=O)C(F)(F)F)C(F)(F)F
electrical conductivity [S/m], 100 kPa, frequency 0.01 MHz
Conditions	293.15 K	298.15 K	303.15 K	308.15 K	313.15 K	318.15 K	323.15 K
x2 = 0.05	0.137	0.15	0.162	0.175	0.188	0.201	0.209
x2 = 0.1002	0.269	0.294	0.319	0.338	0.364	0.393	0.421
x2 = 0.1505	0.378	0.414	0.454	0.485	0.521	0.565	0.605
x2 = 0.1985	0.504	0.548	0.598	0.649	0.706	0.772	0.847
x2 = 0.3001	0.589	0.647	0.715	0.779	0.855	0.943	1.03
x2 = 0.3987	0.567	0.64	0.721	0.803	0.894	0.983	1.08
x2 = 0.4903	0.526	0.594	0.674	0.766	0.856	0.955	1.05
x2 = 0.6309	0.451	0.523	0.607	0.688	0.774	0.872	0.969
x2 = 0.6988	0.418	0.489	0.564	0.645	0.73	0.829	0.928
x2 = 0.8042	0.374	0.441	0.515	0.598	0.689	0.783	0.885
x2 = 0.883	0.356	0.417	0.489	0.573	0.665	0.759	0.862

CN(C)C=O + CCCCCC[n+]1ccn(C)c1.[Cl-]
101 kPa, x1 = 1
Conditions	viscosity [mPa·s]
288.15 K	0.94
298.15 K	0.82

CC1CNCCN1 (configuration not stated) + CC(=O)[O-].CCCC[n+]1ccn(C)c1 + O
viscosity [mPa·s], 100 kPa
Conditions	298.15 K	303.15 K	308.15 K	313.15 K	318.15 K	323.15 K	328.15 K	333.15 K
x2 = 0.04327, x1 = 0.02647	3.46	3.23	2.82	2.64	2.39	1.91	1.31	1.16
x2 = 0.05132, x1 = 0.01784	3.58	3.38	3.16	3.02	2.84	2.52	2.47	1.83
x2 = 0.05944, x1 = 0.009089	4.03	3.78	3.72	3.24	3.11	2.89	2.54	2.03

CCCC[n+]1ccn(C)c1.F[P-](F)(F)(F)(F)F + CC#N
298.15 K, 101 kPa
Conditions	electrical conductivity [S/m]	viscosity [mPa·s]
x2 = 0	0.157	260
x2 = 0.099	0.245	153
x2 = 0.1938	0.374	93
x2 = 0.1945	–	86
x2 = 0.2936	0.552	53.6
x2 = 0.3885	0.84	31.3
x2 = 0.4978	1.3	16.2
x2 = 0.5896	1.84	8.8
x2 = 0.6994	2.71	4.18
x2 = 0.7855	3.46	2.27
x2 = 0.846	3.93	1.48
x2 = 0.8918	4.18	1.08

CC(CC(C)(C)C)CP(=O)([O-])CC(C)CC(C)(C)C.CCCCCCCCCCCCCC[P+](CCCCCC)(CCCCCC)CCCCCC + CCCCCCCCCCCC + O
Conditions	viscosity [mPa·s]
303.15 K, 100 kPa, x2 = 0, x3 = 0.8861	119.5

CCCCCCCC/C=C\CCCCCCCC(=O)O + CC[N+](CC)(CC)CC.[Cl-]
100 kPa, x2 = 0.25
Conditions	viscosity [mPa·s]
293.1 K	268.5
313.2 K	95.4
323.2 K	61.9

CC[n+]1ccn(C)c1.O=S(=O)([O-])O + CC(C)[C@H](N)C(=O)O + O
viscosity [mPa·s], 100 kPa
Conditions	293.15 K	298.15 K	303.15 K	308.15 K	313.15 K
x2 = 0, x1 = 0.0005421	1.046	0.929	0.824	0.75	0.678
x2 = 0, x1 = 0.0009056	1.068	0.949	0.843	0.759	0.684
x2 = 0, x1 = 0.001263	1.073	0.966	0.866	0.78	0.697
x2 = 0.0003674, x1 = 0.0009053	1.09	0.958	0.851	0.767	0.691
x2 = 0.0003913, x1 = 0.0005419	1.068	0.938	0.832	0.758	0.686
x2 = 0.0003924, x1 = 0.001263	1.096	0.975	0.875	0.787	0.705
x2 = 0.0007372, x1 = 0.001262	1.117	0.983	0.882	0.794	0.711
x2 = 0.000749, x1 = 0.0009049	1.112	0.966	0.859	0.774	0.698
x2 = 0.0007642, x1 = 0.0005417	1.09	0.947	0.84	0.765	0.693
x2 = 0.001083, x1 = 0.0005415	1.108	0.954	0.847	0.771	0.699
x2 = 0.001089, x1 = 0.0009046	1.132	0.974	0.866	0.781	0.704
x2 = 0.001118, x1 = 0.001262	1.139	0.992	0.89	0.802	0.718
x2 = 0.001457, x1 = 0.001262	1.159	1	0.897	0.808	0.725
x2 = 0.001475, x1 = 0.0009042	1.155	0.983	0.874	0.788	0.711
x2 = 0.001477, x1 = 0.0005413	1.131	0.963	0.855	0.779	0.706
x2 = 0.001795, x1 = 0.0005411	1.149	0.97	0.861	0.785	0.712
x2 = 0.001812, x1 = 0.0009039	1.175	0.991	0.881	0.795	0.717
x2 = 0.001817, x1 = 0.001261	1.18	1.008	0.905	0.816	0.731
x2 = 0.002249, x1 = 0.0005409	1.176	0.98	0.871	0.794	0.721
x2 = 0.002256, x1 = 0.001261	1.206	1.018	0.915	0.824	0.739
x2 = 0.002283, x1 = 0.0009035	1.203	1.001	0.891	0.804	0.726

CC(CC(C)(C)C)CP(=O)([O-])CC(C)CC(C)(C)C.CCCCCCCCCCCCCC[P+](CCCCCC)(CCCCCC)CCCCCC + CCC(=O)O + O
298.15 K, 100 kPa
Conditions	viscosity [mPa·s]
x2 = 0.02049, x1 = 0.1002	133
x2 = 0.02069, x1 = 0.09762	145
x2 = 0.04451, x1 = 0.115	139
x2 = 0.231, x1 = 0.1669	147
x2 = 0.3019, x1 = 0.1781	150
x2 = 0.3925, x1 = 0.1645	145
x2 = 0.4515, x1 = 0.1697	133
x2 = 0.4652, x1 = 0.1675	127
x2 = 0.4969, x1 = 0.154	133
x2 = 0.5235, x1 = 0.1181	81
x2 = 0.5255, x1 = 0.1239	85
x2 = 0.5271, x1 = 0.1398	114
x2 = 0.5377, x1 = 0.108	60
x2 = 0.571, x1 = 0.09705	52

CC#N + CC[n+]1ccn(C)c1.F[B-](F)(F)F
viscosity [mPa·s]
Conditions	303.15 K	313.15 K	323.15 K	333.15 K
100 kPa, x1 = 1	0.354	–	–	–
101 kPa, x2 = 0	0.326	0.297	0.272	0.249

CCCC[n+]1ccn(C)c1.O=S(=O)([N-]S(=O)(=O)C(F)(F)F)C(F)(F)F + CCCCCO
Conditions	viscosity [mPa·s]
298 K, 100 kPa, x1 = 1	49.7

CN(C)C=O + CCCC[P+](C)(CCCC)CCCC.COS(=O)(=O)[O-]
100 kPa, x2 = 0
Conditions	viscosity [mPa·s]
308.15 K	0.717
323.15 K	0.63
